Experimental data from patent publication US12220419B2, “BCL-2 inhibitors” (Newave Pharmaceutical Inc., priority 2018, dated 2025).
Structures can show the parent of a compound that is named as a salt. Where two headings read alike, the source gives them in different places.

Columns and labels:
[1] = tested on: BCL-2-dependent acute lymphoblastic leukemia (ALL) cell line RS4;11; assay: In vitro anti-proliferation assay (ATPlite luminescence) in RS4;11; format: cell-based; conditions: RS4;11 cells, about 72 hours, medium with 5% FBS or 10% normal human serum
Description: Cell antiproliferation was assayed by PerkinElmer ATPlite™ Luminescence Assay System. Briefly, the various test cancer cell lines were plated at a density of about 1×10^4 cells per well in Costar 96-well plates, and were incubated with different concentrations of compounds for about 72 hours in medium supplemented with 5% FBS or 10% normal human serum (NHS). One lyophilized substrate solution vial was then reconstituted by adding 5 mL of substrate buffer solution, and was agitated gently until the solution was homogeneous. About 50 μL of mammalian cell lysis solution was added to 100 μL of cell suspension per well of a microplate, and the plate was shaken for about five minutes in an orbital shaker at 700 rpm. This procedure was used to lyse the cells and to stabilize the ATP. Next, 50 μL substrate solution was added to the wells and microplate was shaken for five minutes in an orbital shaker at 700 rpm. Finally, the luminescence was measured by a PerkinElmer TopCount® Microplate Scintillation Counter. Such assays, carried out with a range of doses of test compounds, allowed the determination of the cellular anti-antiproliferative IC50 of the compounds of the present invention.

[2] = target: BCL-2 (Homo sapiens (Human), UniProt P10415); assay: BCL-2 competition binding (fluorescence polarization) assay; conditions: read-out: BCL2 IC50
Description: Biological Example 1: BCL-2 Competition Binding (Fluorescence Polarization) Assay
The fluorescence-labeled 23 amino acid peptide BH3 was purchased from CalBiochem ([…]). […] This binding assay was performed in 96-well plate and with each assay contained 15 and 30 nM of labeled peptide and purified BCL-2 protein (purchased from R&D Systems, Inc). The assay buffer contained 20 mM Hepes (pH 7.0), 50 mM KCl, 5 mM MgCl2, 20 mM Na2MoO4, 0.1 mg/ml Bovine Gamma Globulin and 0.01% NP40. Compounds were diluted in DMSO and added to the final assay with concentration range from 20 μM to 2 nM. The polarization degree (mP) value was determined by BioTek Synergy II with background subtraction after 3 hours of incubation at room temperature. IC50 was calculated using Prism software with sigmoidal dose-response curve fitting. ABT-737 was used as reference compound. Such assays, carried out with a range of doses of test compounds, allowed the determination of an approximate IC50 value.

[3] = fluorescein-labeled BH3 peptide 15 nM, purified BCL-2 protein 30 nM, 3 hours incubation at room temperature

Sequence of BCL-2 (P10415 whole entry): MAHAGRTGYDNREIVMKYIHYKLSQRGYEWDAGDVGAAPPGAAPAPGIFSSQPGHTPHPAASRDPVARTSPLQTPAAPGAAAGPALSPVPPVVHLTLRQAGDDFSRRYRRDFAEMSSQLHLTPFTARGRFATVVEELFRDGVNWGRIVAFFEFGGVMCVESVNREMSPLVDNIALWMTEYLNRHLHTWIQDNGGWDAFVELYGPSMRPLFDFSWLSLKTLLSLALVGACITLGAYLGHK

| IC50 [2] | Compound | IC50 [1] | IC50 [2, 3] |
| --- | --- | --- | --- |
|  | O=C(NS(=O)(=O)c1ccc(NC[C@H]2COCCO2)c([N+](=O)[O-])c1)c1ccc(N2CCN(CC3=C(c4ccc(Cl)cc4)CCCCC3)CC2)cc1N1CCCOc2nc3[nH]ccc3cc21 [Example 75, 4-(4-[[2-(4-chlorophenyl)cyclohept-1-en-1-yl]methyl]piperazin-1-yl)-N-(4-[[(2S)-1,4-dioxan-2-ylmethyl]amino]-3-nitrobenzenesulfonyl)-2-[14-oxa-2,4,10-triazatricyclo[7.5.0.0^[3,7]]tetradeca-1(9),2,5,7-tetraen-10-yl]benzamide] | 2.7 nM | 0.6 nM |
|  | Cc1ncsc1-c1ccc(CNC(=O)[C@@H]2C[C@@H](O)CN2C(=O)[C@@H](NC(=O)CCOCCN2CCN(CCNc3ccc(S(=O)(=O)NC(=O)c4ccc(N5CCN(CC6=C(c7ccc(Cl)cc7)CC(C)(C)CC6)CC5)cc4N4CCCOc5nc6[nH]ccc6cc54)cc3[N+](=O)[O-])CC2)C(C)(C)C)cc1 [Example 58] | 102 nM | 0.3 nM |
|  | Cc1ncsc1-c1ccc(CNC(=O)[C@@H]2C[C@@H](C)CN2C(=O)[C@@H](NC(=O)CCOCCOCCOCCNc2ccc(S(=O)(=O)NC(=O)c3cc(N4CCN(CC5=C(c6ccc(Cl)cc6)CC(C)(C)CC5)CC4)ccc3N3CCCOc4nc5[nH]ccc5cc43)cc2[N+](=O)[O-])C(C)(C)C)cc1 [Example 59, (2S,4R)-1-[(2S)-2-[3-[2-(2-[2-[(4-[[5-(4-[[2-(4-chlorophenyl)-4,4-dimethylcyclohex-1-en-1-yl]methyl]piperazin-1-yl)-2-[14-oxa-2,4,10-triazatricyclo[7.5.0.0^[3,7]]tetradeca-1(9),2,5,7-tetraen-10-yl]phenyl]formamidosulfonyl]-2-nitrophenyl)amino]ethoxy]ethoxy)ethoxy]propanamido]-3,3-dimethylbutanoyl]-4-methyl-N-[[4-(4-methyl-1,3-thiazol-5-yl)phenyl]methyl]pyrrolidine-2-carboxamide] | 84 nM | 1.1 nM |
|  | Cc1ncsc1-c1ccc(CNC(=O)[C@@H]2C[C@@H](O)CN2C(=O)[C@@H](NC(=O)CCOCCOCCOCCOCCNc2ccc(S(=O)(=O)NC(=O)c3ccc(N4CCN(CC5=C(c6ccc(Cl)cc6)CC(C)(C)CC5)CC4)cc3N3CCCOc4nc5[nH]ccc5cc43)cc2[N+](=O)[O-])C(C)(C)C)cc1 [Example 57, (2S,4R)-1-[(2S)-2-[1-[(4-[[4-(4-[[2-(4-chlorophenyl)-4,4-dimethylcyclohex-1-en-1-yl]methyl]piperazin-1-yl)-2-[14-oxa-2,4,10-triazatricyclo[7.5.0.0^[3,7]]tetradeca-1(9),2,5,7-tetraen-10-yl]phenyl]formamidosulfonyl]-2-nitrophenyl)amino]-3,6,9,12-tetraoxapentadecan-15-amido]-3,3-dimethylbutanoyl]-4-hydroxy-N-[[4-(4-methyl-1,3-thiazol-5-yl)phenyl]methyl]pyrrolidine-2-carboxamide] | 68 nM | 0.5 nM |
|  | Cc1ncsc1-c1ccc(CNC(=O)[C@@H]2C[C@@H](O)CN2C(=O)[C@@H](NC(=O)CCOCCOCCOCCN2CCN(CCNc3ccc(S(=O)(=O)NC(=O)c4ccc(N5CCN(CC6=C(c7ccc(Cl)cc7)CC(C)(C)CC6)CC5)cc4N4CCCOc5nc6[nH]ccc6cc54)cc3[N+](=O)[O-])CC2)C(C)(C)C)cc1 [Example 54] | 49.6 nM | 0.6 nM |
|  | CC1(C)CCC(CN2CCN(c3ccc(C(=O)NS(=O)(=O)c4ccc(NC[C@H]5COCCO5)c([N+](=O)[O-])c4)c(-n4c5ccncc5c5nc6[nH]ccc6cc54)c3)CC2)=C(c2ccc(Cl)cc2)C1 [Example 71, 4-(4-[[2-(4-chlorophenyl)-4,4-dimethylcyclohex-1-en-1-yl]methyl]piperazin-1-yl)-N-(4-[[(2S)-1,4-dioxan-2-ylmethyl]amino]-3-nitrobenzenesulfonyl)-2-[4,8,14,16-tetraazatetracyclo[7.7.0.0^[2,7].0[11,15]]hexadeca-1(16),2(7),3,5,9,11(15),12-heptaen-8-yl]benzamide] | 192 nM | 0.6 nM |
| 0.6 nM | CC1(C)CCC(CN2CCN(c3ccc(C(=O)NS(=O)(=O)c4ccc(NCCN5CCN(CCOCCOCCNc6cccc7c6C(=O)N(C6CCC(=O)NC6=O)C7=O)CC5)c([N+](=O)[O-])c4)c(N4CCCOc5nc6[nH]ccc6cc54)c3)CC2)=C(c2ccc(Cl)cc2)C1 (stereo not drawn) [Example 50, 4-(4-[[2-(4-chlorophenyl)-4,4-dimethylcyclohex-1-en-1-yl]methyl]piperazin-1-yl)-N-(4-[[2-(4-[2-[2-(2-[[2-(2,6-dioxopiperidin-3-yl)-1,3-dioxoisoindol-4-yl]amino]ethoxy)ethoxy]ethyl]piperazin-1-yl)ethyl]amino]-3-nitrobenzenesulfonyl)-2-[14-oxa-2,4,10-triazatricyclo[7.5.0.0^[3,7]]tetradeca-1(9),2,5,7-tetraen-10-yl]benzamide] | 43 nM |  |
|  | O=C(NS(=O)(=O)c1ccc(NC[C@H]2COCCO2)c([N+](=O)[O-])c1)c1ccc(N2CCN(CC3=C(c4ccc(Cl)cc4)CCCC3)CC2)cc1N1CCCOc2nc3[nH]ccc3cc21 [Example 74, 4-(4-[[2-(4-chlorophenyl)cyclohex-1-en-1-yl]methyl]piperazin-1-yl)-N-(4-[[(2S)-1,4-dioxan-2-ylmethyl]amino]-3-nitrobenzenesulfonyl)-2-[14-oxa-2,4,10-triazatricyclo[7.5.0.0^[3,7]]tetradeca-1(9),2,5,7-tetraen-10-yl]benzamide] | 1.7 nM | 0.3 nM |
|  | Cn1c(=O)c2nc3[nH]ccc3cc2n1-c1cc(N2CCN(CC3=C(c4ccc(Cl)cc4)CC(C)(C)CC3)CC2)ccc1C(=O)NS(=O)(=O)c1ccc(NC[C@H]2COCCO2)c([N+](=O)[O-])c1 [Example 70, 4-(4-[[2-(4-chlorophenyl)-4,4-dimethylcyclohex-1-en-1-yl]methyl]piperazin-1-yl)-N-(4-[[(2S)-1,4-dioxan-2-ylmethyl]amino]-3-nitrobenzenesulfonyl)-2-[11-methyl-12-oxo-2,4,10,11-tetraazatricyclo[7.3.0.0^[3,7]]dodeca-1,3(7),5,8-tetraen-10-yl]benzamide] | 186 nM | 0.1 nM |
|  | Cc1ncsc1-c1ccc(CNC(=O)[C@@H]2C[C@@H](O)CN2C(=O)[C@@H](NC(=O)CCOCCOCCOCCOCCOCCNc2ccc(S(=O)(=O)NC(=O)c3ccc(N4CCN(CC5=C(c6ccc(Cl)cc6)CC(C)(C)CC5)CC4)cc3N3CCCOc4nc5[nH]ccc5cc43)cc2[N+](=O)[O-])C(C)(C)C)cc1 [Example 55, (2S,4R)-1-[(2S)-2-[1-[(4-[[4-(4-[[2-(4-chlorophenyl)-4,4-dimethylcyclohex-1-en-1-yl]methyl]piperazin-1-yl)-2-[14-oxa-2,4,10-triazatricyclo[7.5.0.0^[3,7]]tetradeca-1(9),2,5,7-tetraen-10-yl]phenyl]formamidosulfonyl]-2-nitrophenyl)amino]-3,6,9,12,15-pentaoxaoctadecan-18-amido]-3,3-dimethylbutanoyl]-4-hydroxy-N-[[4-(4-methyl-1,3-thiazol-5-yl)phenyl]methyl]pyrrolidine-2-carboxamide] | 75 nM | 1.1 nM |
|  | CC1(C)CCC(c2ccc(Cl)cc2)=C(CN2CCN(c3ccc(C(=O)NS(=O)(=O)c4ccc(NC[C@H]5COCCO5)c([N+](=O)[O-])c4)c(N4CCCOc5nc6[nH]ccc6cc54)c3)CC2)C1 [Example 73, 4-(4-[[2-(4-chlorophenyl)-5,5-dimethylcyclohex-1-en-1-yl]methyl]piperazin-1-yl)-N-(4-[[(2S)-1,4-dioxan-2-ylmethyl]amino]-3-nitrobenzenesulfonyl)-2-[14-oxa-2,4,10-triazatricyclo[7.5.0.0^[3,7]]tetradeca-1(9),2,5,7-tetraen-10-yl]benzamide] | 3.1 nM | 0.9 nM |
| 0.1 nM | CC1(C)CCC(CN2CCN(c3ccc(C(=O)NS(=O)(=O)c4ccc(NC[C@H]5COCCO5)c([N+](=O)[O-])c4)c(N4CCOCc5nc6[nH]ccc6cc54)c3)CC2)=C(c2ccc(Cl)cc2)C1 [Example 41, 4-(4-[[2-(4-chlorophenyl)-4,4-dimethylcyclohex-1-en-1-yl]methyl]piperazin-1-yl)-N-(4-[[(2S)-1,4-dioxan-2-ylmethyl]amino]-3-nitrobenzenesulfonyl)-2-[13-oxa-2,4,10-triazatricyclo[7.5.0.0^[3,7]]tetradeca-1(9),2,5,7-tetraen-10-yl]benzamide hydrochloride] | 1.1 nM |  |
